From US20240156805A1, “COMPOUND FOR INHIBITING NONSENSE-MEDIATED MRNA DECAY” (RIBOTECH CO., LTD., priority 2021, published 2024)

Tests used:
UPF1 = experiment: Effect on phosphorylation of UPF1, western blotting; type: cell-based; conditions: 5 μM for 12 hours, FIG. 5
Experimental: Phosphorylation of UPFI was known to be one of the most important factors in NMD. In Example 3.1, the effect of the three types of compounds of the present invention on phosphorylation of UPFI was examined. The cells were treated with each compound at 5 μM for 12 hours, and then total proteins were purified. Then, western blotting was performed using each antibody capable of recognizing Upfl or Upfl phosphorylated at a specific site.

UPF1 and UPF2 = biological target: T1, UPF1 and UPF2 (Homo sapiens, UniProt Q92900+Q9HAU5); experiment: Effect on binding between UPF1 and UPF2, FLAG-UPF1 immunoprecipitation and western blotting; type: cell-based; conditions: 5 μM for 1 hour; FLAG immunoprecipitation; FIG. 6
T1 construct: expressed in transfected cells
T1 sequence (Q92900 1-1129): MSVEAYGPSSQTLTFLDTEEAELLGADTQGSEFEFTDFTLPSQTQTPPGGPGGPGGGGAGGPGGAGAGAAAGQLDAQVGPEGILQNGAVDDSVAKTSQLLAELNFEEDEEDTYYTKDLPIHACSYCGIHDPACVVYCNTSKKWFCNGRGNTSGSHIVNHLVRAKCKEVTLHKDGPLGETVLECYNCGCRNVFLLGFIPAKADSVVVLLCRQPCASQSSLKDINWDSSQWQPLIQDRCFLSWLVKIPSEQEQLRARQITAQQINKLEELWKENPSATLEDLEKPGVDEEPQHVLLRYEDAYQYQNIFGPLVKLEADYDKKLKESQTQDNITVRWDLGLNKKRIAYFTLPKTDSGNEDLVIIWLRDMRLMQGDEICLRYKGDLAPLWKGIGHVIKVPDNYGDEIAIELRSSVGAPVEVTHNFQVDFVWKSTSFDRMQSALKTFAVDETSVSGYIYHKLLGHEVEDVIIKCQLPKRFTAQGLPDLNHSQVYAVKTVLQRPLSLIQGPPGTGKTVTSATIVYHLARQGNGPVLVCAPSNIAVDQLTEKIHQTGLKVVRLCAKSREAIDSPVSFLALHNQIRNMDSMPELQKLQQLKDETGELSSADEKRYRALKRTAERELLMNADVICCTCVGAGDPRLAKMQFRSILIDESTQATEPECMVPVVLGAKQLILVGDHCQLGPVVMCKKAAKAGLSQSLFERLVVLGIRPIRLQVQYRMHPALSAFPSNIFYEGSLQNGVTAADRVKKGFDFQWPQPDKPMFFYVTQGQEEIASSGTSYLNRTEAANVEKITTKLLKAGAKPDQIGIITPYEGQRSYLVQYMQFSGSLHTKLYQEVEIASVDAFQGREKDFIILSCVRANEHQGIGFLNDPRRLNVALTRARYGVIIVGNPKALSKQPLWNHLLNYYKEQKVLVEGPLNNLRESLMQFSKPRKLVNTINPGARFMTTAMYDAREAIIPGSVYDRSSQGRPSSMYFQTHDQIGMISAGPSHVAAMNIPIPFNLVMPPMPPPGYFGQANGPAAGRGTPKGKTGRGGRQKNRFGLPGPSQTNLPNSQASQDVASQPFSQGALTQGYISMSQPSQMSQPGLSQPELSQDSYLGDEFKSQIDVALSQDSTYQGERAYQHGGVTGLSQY
T1 sequence (Q9HAU5 1-1272): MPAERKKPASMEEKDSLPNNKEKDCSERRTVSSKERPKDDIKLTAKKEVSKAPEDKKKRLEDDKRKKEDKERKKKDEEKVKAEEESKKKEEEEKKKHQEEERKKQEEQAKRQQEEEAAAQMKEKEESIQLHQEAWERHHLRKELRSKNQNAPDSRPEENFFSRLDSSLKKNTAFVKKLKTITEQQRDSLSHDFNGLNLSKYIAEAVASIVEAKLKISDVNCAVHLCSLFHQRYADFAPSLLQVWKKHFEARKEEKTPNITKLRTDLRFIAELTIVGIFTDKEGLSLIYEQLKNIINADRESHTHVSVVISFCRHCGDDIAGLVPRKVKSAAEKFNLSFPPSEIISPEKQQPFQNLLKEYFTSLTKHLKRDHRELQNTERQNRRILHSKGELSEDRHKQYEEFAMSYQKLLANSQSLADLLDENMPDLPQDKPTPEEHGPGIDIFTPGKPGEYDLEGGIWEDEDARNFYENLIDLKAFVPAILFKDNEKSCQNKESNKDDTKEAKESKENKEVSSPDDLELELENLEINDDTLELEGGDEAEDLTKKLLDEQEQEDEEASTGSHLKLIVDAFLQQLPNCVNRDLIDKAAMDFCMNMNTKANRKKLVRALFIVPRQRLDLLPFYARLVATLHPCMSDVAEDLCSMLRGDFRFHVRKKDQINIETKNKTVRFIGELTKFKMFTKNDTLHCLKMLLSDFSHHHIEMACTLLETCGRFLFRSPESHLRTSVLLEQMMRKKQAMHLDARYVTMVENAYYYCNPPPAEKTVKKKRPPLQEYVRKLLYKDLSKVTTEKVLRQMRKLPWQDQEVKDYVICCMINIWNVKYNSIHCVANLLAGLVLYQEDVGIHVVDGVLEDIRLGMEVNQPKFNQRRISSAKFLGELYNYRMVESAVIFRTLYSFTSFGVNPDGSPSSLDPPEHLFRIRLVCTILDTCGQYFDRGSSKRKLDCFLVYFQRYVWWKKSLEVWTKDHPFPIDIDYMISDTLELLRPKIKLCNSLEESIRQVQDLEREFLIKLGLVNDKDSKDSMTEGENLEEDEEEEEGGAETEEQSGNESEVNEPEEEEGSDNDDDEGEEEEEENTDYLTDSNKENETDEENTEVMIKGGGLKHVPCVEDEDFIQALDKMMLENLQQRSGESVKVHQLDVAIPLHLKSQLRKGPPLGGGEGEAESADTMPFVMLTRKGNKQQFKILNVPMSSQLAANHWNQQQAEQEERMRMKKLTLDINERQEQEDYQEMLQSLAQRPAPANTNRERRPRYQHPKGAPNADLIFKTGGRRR
Experimental: In the cell line, DNA expressing FLAG-UPF1 was transiently overexpressed.
After treating the cell line with each compound at 5 μM for 1 hour, a cell extract was obtained. Immunoprecipitation was performed on the cell extract obtained using a FLAG antibody.
Proteins before and after immunoprecipitation were analyzed by western blotting.

[1] = test system: β-6bs mRNA (reporter mRNA); experiment: Tethering of MS2-Upf1, MS2-Upf2, MS2-Upf3 to 3' UTR of reporter mRNA in HeLa cell line, real-time PCR; type: cell-based; conditions: 5 μM for 6 hours or 12 hours; FIGS. 8 and 9
Experimental: An NMD-based search system capable of artificially reducing the amount of reporter mRNA was constructed, after artificially tethering proteins Upf1, Upf2, and Upf3X acting in each step of NMD to 3′ UTR of reporter mRNA (FIG. 7). Using this method, it was attempted to verify which step of NMD the three types of compounds acted on.
After treating the cell line with each compound at 5 μM for 6 hours or 12 hours, a cell extract was obtained. Thereafter, the relative amount of reporter mRNA was measured through real-time PCR.

[2] = test system: HeLa cell line constitutively expressing the NMD-target mRNA (RLuc-beta-globin PTC); experiment: NMD reporter HeLa cell line, RLuc mRNA by real-time PCR; type: cell-based; conditions: 5 μM for 12 hours, FIG. 4
Text: In Example 1, a beta-globin normal gene or the gene including a premature termination codon (PTC) found in genetic diseases was inserted into the downstream of a chemiluminescence gene, Renilla luciferase (RLuc). Normal gene-inserted mRNA was not targeted by NMD, whereas when a gene having PTC was inserted, the mRNA became a NMD target, and as a result, mRNA was quickly broken down and the expression level of RLuc was reduced.
Accordingly, a HeLa cell line constitutively expressing the NMD-target mRNA was prepared, and simultaneously, the cell line was designed to constitutively express a firefly luciferase (FLuc) gene, which was not a target of NMD, and a total of three cell lines NMD20, NMD4, and NMD5 with the same composition were obtained. In order to confirm whether the HeLa cell line prepared above was suitable for measuring NMD efficiency, the following two experiments were performed.
The NMD inhibitory effect of Compounds 1 to 3 was confirmed using the HeLa cell line prepared in Example 1. After treating the cells with Compounds 1 to 3 at 5 μM for 12 hours, respectively, total RNA and protein were purified from the cells, respectively. Then, the amounts of RNA and protein were quantified respectively through real-time PCR and dual luciferase assay methods. The results were illustrated in FIG. 4.

[3] = test system: HeLa cell line constitutively expressing the NMD-target mRNA (RLuc-beta-globin PTC); experiment: NMD reporter HeLa cell lines (NMD20, NMD4, NMD5), RLuc/FLuc dual luciferase assay; type: cell-based; conditions: 5 μM for 12 hours, FIG. 4
Experimental: In Example 1, a beta-globin normal gene or the gene including a premature termination codon (PTC) found in genetic diseases was inserted into the downstream of a chemiluminescence gene, Renilla luciferase (RLuc). Normal gene-inserted mRNA was not targeted by NMD, whereas when a gene having PTC was inserted, the mRNA became a NMD target, and as a result, mRNA was quickly broken down and the expression level of RLuc was reduced. […]
First, each of the prepared cell lines was treated with caffeine, which was known as a non-specific NMD inhibitor, to confirm the degree of RLuc activity to FLuc activity. […] Then, the expression levels of RLuc and FLuc proteins were measured by dual luciferase assay.
Additionally, it was attempted to determine whether the prepared HeLa cell line was suitable for performing high-throughput screening (HTS). Experiments were performed by optimizing the conditions such as the number of cells, the amounts of used reagent and buffer, and the like in a 384-well format to be suitable for HTS (FIG. 3), and NMD efficiency was measured using Wortmannin, which was a non-specific NMD inhibitor, as a control substance. […]
The NMD inhibitory effect of Compounds 1 to 3 was confirmed using the HeLa cell line prepared in Example 1. […] Then, the amounts of RNA and protein were quantified respectively through real-time PCR and dual luciferase assay methods. […]

dystrophin protein = experiment: Dystrophin protein in DMD patient-derived cell line, Western blotting; type: cell-based, human; conditions: 5 μM for 12 hours, FIG. 11

Compound | phosphorylation of UPF1 (UPF1) | UPF1-UPF2 binding (UPF1 and UPF2) | NMD step targeted (relative amount of reporter mRNA) [1] | amount of RLuc mRNA [2] | protein translation of RLuc [3] | amount of dystrophin protein expressed in cells (dystrophin protein)
COc1cc2ncnc(-n3nc(-c4ccccn4)nc3N)c2cc1OC [Compound 3, 1-(6,7-Dimethoxy-4-quinazolinyl)-3-(2-pyridinyl)-1H-1,2,4-Triazol-5-amine] | did not significantly affect | did not significantly affect | did not target the UPF1-UPF2 and UPF2-UPF3 steps | significantly increased | – | –
COc1ncc(-c2ccc3nccc(-c4ccnnc4)c3c2)cc1NS(=O)(=O)c1ccc(F)cc1F [Compound 1, 2,4-Difluoro-N-{2-(methyloxy)-5-[4-(4-pyridazinyl)-6-quinolinyl]-3-pyridinyl} benzenesulfonamide] | did not significantly affect | significantly inhibited | targeted a UPF1-UPF2 step | – | increased | increased
Cn1c(=O)n(-c2ccc(C(C)(C)C#N)cc2)c2c3cc(-c4cnc5ccccc5c4)ccc3ncc21 [Compound 2, 2-methyl-2-{4-[3-methyl-2-oxo-8-(quinolin-3-yl)-2,3-dihydro-1H-imidazo[4,5-c]quinolin-1-yl]phenyl} propanenitrile] | significantly inhibited | did not significantly affect | did not target the UPF1-UPF2 and UPF2-UPF3 steps | significantly increased | – | –
